{"source": "patent US20180147256A1", "about": "“MEANS AND METHODS FOR TREATING FACIOSCAPULOHUMERAL MUSCULAR DYSTROPHY (FSHD)” (ACADEMISCH ZIEKENHUIS LEIDEN H.O.D.N. LUMC, priority 2015, published 2018)", "system": "DUX4", "assay": "DUX4 transcript levels in FSHD primary muscle cell cultures treated with PR-619", "format": "cell-based", "settings": "DUX4 expressing human primary FSHD myoblasts; 5 μM, 10 μM and 20 μM", "procedure": "To further confirm the hypothesis that sumoylation is relevant for repression of DUX4, PR619 was used as inhibitor for the removal of SUMO substrates from their proteins. PR619 is a non-selective inhibitor of deubiquitinases and ubiquitin-like isopeptidases (like the family of SENP isopeptidases). […] DUX4 expressing human primary FSHD myoblasts were treated with 3 different concentrations of PR619 (5 μM, 10 μM and 20 μM) and cells were harvested for RNA isolation. […] Thus PR619 treatment of DUX4 expressing primary FSHD myotubes leads to DUX4 downregulation.\nHuman primary myoblast cell lines were originating from the University of Rochester bio repository (http://www.urmc.rochester.edu/fields-center/). Muscle samples were obtained after subjects were consented under a protocol approved by the institutional review board at the University of Rochester. […]\nMyoblast and myotube samples were harvested for RNA isolation by adding QIAzol lysis reagent (#79306 Qiagen N.V., Venlo, The Netherlands). […] Gene specific cDNA products were quantified by qPCR in duplicate using SYBR green master mix supplemented with gene specific primers (table S2) using the CFX96 system (Bio-Rad, Veenendaal, The Netherlands). Data were analyzed by Bio-Rad CFX manager version 3.0 (Bio-Rad) using GAPDH and GUSB as reference genes.", "data": [{"smiles": "N#CSc1cc(SC#N)c(N)nc1N", "note": "[PR-619, 2,6-Diamino-3,5-dithiocyanopyridine]", "values": [{"measurement": "DUX4 transcript levels", "value": "decreased in cells treated with PR-619 in a dose dependent manner"}]}]}
